The target of this test is T1, GR (Homo sapiens, UniProt P04150).
T1 construct: expressed in transfected cells; host or cells: CHO-K1
T1 sequence (P04150 1-777): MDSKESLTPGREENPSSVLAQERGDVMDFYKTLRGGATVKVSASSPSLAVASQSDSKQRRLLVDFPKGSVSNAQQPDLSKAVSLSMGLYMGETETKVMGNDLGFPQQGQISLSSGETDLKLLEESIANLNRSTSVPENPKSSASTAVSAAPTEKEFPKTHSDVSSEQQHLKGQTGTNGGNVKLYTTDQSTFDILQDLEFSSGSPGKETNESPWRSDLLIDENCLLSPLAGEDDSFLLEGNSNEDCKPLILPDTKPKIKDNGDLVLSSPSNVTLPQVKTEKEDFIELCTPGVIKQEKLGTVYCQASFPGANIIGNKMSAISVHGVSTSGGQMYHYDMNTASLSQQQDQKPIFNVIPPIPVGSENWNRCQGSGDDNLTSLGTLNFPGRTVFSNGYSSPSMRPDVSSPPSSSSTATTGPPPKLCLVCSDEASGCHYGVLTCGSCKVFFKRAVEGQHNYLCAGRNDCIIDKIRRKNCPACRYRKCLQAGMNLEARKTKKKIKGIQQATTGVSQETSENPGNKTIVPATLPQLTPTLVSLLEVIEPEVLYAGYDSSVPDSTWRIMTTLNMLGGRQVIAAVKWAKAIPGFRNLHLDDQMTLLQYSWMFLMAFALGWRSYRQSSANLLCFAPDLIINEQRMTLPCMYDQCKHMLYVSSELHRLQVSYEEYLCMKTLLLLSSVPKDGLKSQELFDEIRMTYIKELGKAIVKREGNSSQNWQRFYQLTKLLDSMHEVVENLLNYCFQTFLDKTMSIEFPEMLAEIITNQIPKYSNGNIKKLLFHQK
The test can be described thus: In Vitro GR Luciferase Reporter Assay (antagonist mode, CHO-K1-GR-MMTV-Luc reporter cells). In kind it is cell-based. The following applies: antagonist assay with 10 nM Dexamethasone, 18-24 hours. Put shortly: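 CHO-K1-GR-MMTV-Luc cells in phenol red-free DMEM with 10% CSS, stimulated with 10 nM dexamethasone (final) and treated with 8-point 1:5 compound dilutions for about 18-24 h at 37° C. Luciferase measured by OneGlo luminescence; IC50 derived for inhibition of GR activity.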
Background: A reporter such as luciferase makes a cellular process visible.

Where only a bound is given, the exact number is not on record here.

For orientation: IC50 means the concentration at which inhibition is half-maximal. Consider `CN([C@H]1CCC2=Cc3c(cnn3-c3ccc(F)cc3)C[C@]2(C(=O)c2ccccn2)C1)S(=O)(=O)c1ccccc1` [Example 80, N-((4aS,6S)-1-(4-fluorophenyl)-4a-picolinoyl-4,4a,5,6,7,8-hexahydro-1H-benzo[f]indazol-6-yl)-N-methylbenzenesulfonamide], for which the IC50 was ≤ 100 nM.
Under `CN([C@H]1CCC2=Cc3c(cnn3-c3ccc(F)cc3)C[C@]2(C(=O)c2ccccn2)C1)S(=O)(=O)c1cccc(Cl)c1` [Example 82, 3-chloro-N-((4aS,6S)-1-(4-fluorophenyl)-4a-picolinoyl-4,4a,5,6,7,8-hexahydro-1H-benzo[f]indazol-6-yl)-N-methylbenzenesulfonamide] stands ≤ 100 nM.
For the molecule `CN([C@H]1CCC2=Cc3c(cnn3-c3ccc(F)cc3)C[C@]2(C(=O)c2ccccn2)C1)S(=O)(=O)c1cccc(C(F)(F)F)c1` [Example 83, N-((4aS,6S)-1-(4-fluorophenyl)-4a-picolinoyl-4,4a,5,6,7,8-hexahydro-1H-benzo[f]indazol-6-yl)-N-methyl-3-(trifluoromethyl)benzenesulfonamide], the IC50 was ≤ 100 nM.
With `CN([C@H]1CCC2=Cc3c(cnn3-c3ccc(F)cc3)C[C@]2(C(=O)c2ccccn2)C1)S(=O)(=O)c1cccnc1` [Example 84, N-((4aS,6S)-1-(4-fluorophenyl)-4a-picolinoyl-4,4a,5,6,7,8-hexahydro-1H-benzo[f]indazol-6-yl)-N-methylpyridine-3-sulfonamide], the IC50 was ≤ 100 nM.
Under `CN([C@H]1CCC2=Cc3c(cnn3-c3ccc(F)cc3)C[C@]2(C(=O)c2ccccn2)C1)S(=O)(=O)c1ccc(C(F)(F)F)cc1` [Example 85, N-((4aS,6S)-1-(4-fluorophenyl)-4a-picolinoyl-4,4a,5,6,7,8-hexahydro-1H-benzo[f]indazol-6-yl)-N-methyl-4-(trifluoromethyl)benzenesulfonamide] stands ≤ 100 nM; under `CN([C@H]1CCC2=Cc3c(cnn3-c3ccc(F)cc3)C[C@]2(C(=O)c2cc(C(F)(F)F)ccn2)C1)S(=O)(=O)c1ccc(C(F)(F)F)cc1` [Example 86, N-((4aS,6S)-1-(4-fluorophenyl)-4a-(4-(trifluoromethyl)picolinoyl)-4,4a,5,6,7,8-hexahydro-1H-benzo[f]indazol-6-yl)-N-methyl-4-(trifluoromethyl)benzenesulfonamide], ≤ 100 nM; under `CCn1cc(S(=O)(=O)N(C)[C@H]2CCC3=Cc4c(cnn4-c4ccc(F)cc4)C[C@]3(C(=O)c3cc(C(F)(F)F)ccn3)C2)cn1` [Example 87, 1-ethyl-N-((4aS,6S)-1-(4-fluorophenyl)-4a-(4-(trifluoromethyl)picolinoyl)-4,4a,5,6,7,8-hexahydro-1H-benzo[f]indazol-6-yl)-N-methyl-1H-pyrazole-4-sulfonamide], ≤ 100 nM.
Take `CN(C(=O)c1ccccc1)[C@H]1CCC2=Cc3c(cnn3-c3ccc(F)cc3)C[C@]2(C(=O)c2ccccn2)C1` [Example 89, N-((4aS,6S)-1-(4-fluorophenyl)-4a-picolinoyl-4,4a,5,6,7,8-hexahydro-1H-benzo[f]indazol-6-yl)-N-methylbenzamide]: the IC50 was ≤ 100 nM.
`CN(c1ccccc1)S(=O)(=O)[C@H]1CCC2=Cc3c(cnn3-c3ccc(F)cc3)C[C@]2(C(=O)c2ccccn2)C1` [Example 92, (4aS,6S)-1-(4-fluorophenyl)-N-methyl-N-phenyl-4a-picolinoyl-4,4a,5,6,7,8-hexahydro-1H-benzo[f]indazole-6-sulfonamide] showed an IC50 of 100 to 1000 nM.
Under `CN([C@@H]1CCC2=Cc3c(cnn3-c3ccc(F)cc3)C[C@]2(C(=O)c2cc(C(F)(F)F)ccn2)C1)S(=O)(=O)c1cnn(C)c1` [Example 95, N-((4aS,6R)-1-(4-fluorophenyl)-4a-(4-(trifluoromethyl)picolinoyl)-4,4a,5,6,7,8-hexahydro-1H-benzo[f]indazol-6-yl)-N,1-dimethyl-1H-pyrazole-4-sulfonamide] stands ≤ 100 nM; under `CN(C(=O)c1cnn(C)c1)[C@H]1CCC2=Cc3c(cnn3-c3ccc(F)cc3)C[C@]2(C(=O)c2cc(C(F)(F)F)ccn2)C1` [Example 96, N-((4aS,6S)-1-(4-fluorophenyl)-4a-(4-(trifluoromethyl)picolinoyl)-4,4a,5,6,7,8-hexahydro-1H-benzo[f]indazol-6-yl)-N,1-dimethyl-1H-pyrazole-4-carboxamide], ≤ 100 nM.
For the molecule `CC(C)n1cc(S(=O)(=O)N(C)[C@H]2CCC3=Cc4c(cnn4-c4ccc(F)cc4)C[C@]3(C(=O)c3cc(C(F)(F)F)ccn3)C2)cn1` [Example 97, N-((4aS,6S)-1-(4-fluorophenyl)-4a-(4-(trifluoromethyl)picolinoyl)-4,4a,5,6,7,8-hexahydro-1H-benzo[f]indazol-6-yl)-1-isopropyl-N-methyl-1H-pyrazole-4-sulfonamide], the IC50 was ≤ 100 nM.
On to `CN([C@H]1CCC2=Cc3c(cnn3-c3ccc(F)cc3)C[C@]2(C(=O)c2cc(C(F)(F)F)ccn2)C1)S(=O)(=O)c1cnn(C)c1` [Example 100, N-((4aS,6S)-1-(4-fluorophenyl)-4a-(4-(trifluoromethyl)picolinoyl)-4,4a,5,6,7,8-hexahydro-1H-benzo[f]indazol-6-yl)-N,1-dimethyl-1H-pyrazole-4-sulfonamide], for which the IC50 was in the range of 100 to 1000 nM.
Turning to `CN(c1cnn(C)c1)S(=O)(=O)[C@H]1CCC2=Cc3c(cnn3-c3ccc(F)cc3)C[C@]2(C(=O)c2cc(C(F)(F)F)ccn2)C1` [Example 101, (4aS,6S)-1-(4-fluorophenyl)-N-methyl-N-(1-methyl-1H-pyrazol-4-yl)-4a-(4-(trifluoromethyl)picolinoyl)-4,4a,5,6,7,8-hexahydro-1H-benzo[f]indazole-6-sulfonamide], the IC50 lay within 100 to 1000 nM.
As for `CN([C@H]1CCC2=Cc3c(cnn3-c3ccc(F)cc3)C[C@]2(C(=O)c2ccc(C(F)(F)F)cn2)C1)S(=O)(=O)c1ccc(Cl)cc1` [Example 105, 4-chloro-N-((4aS,6S)-1-(4-fluorophenyl)-4a-(5-(trifluoromethyl)picolinoyl)-4,4a,5,6,7,8-hexahydro-1H-benzo[f]indazol-6-yl)-N-methylbenzenesulfonamide], the IC50 is ≤ 100 nM.
To `CN([C@H]1CCC2=Cc3c(cnn3-c3ccc(F)cc3)C[C@]2(C(=O)c2nccs2)C1)S(=O)(=O)c1ccc(F)cc1` [Example 106, 4-fluoro-N-((4aS,6S)-1-(4-fluorophenyl)-4a-(thiazole-2-carbonyl)-4,4a,5,6,7,8-hexahydro-1H-benzo[f]indazol-6-yl)-N-methylbenzenesulfonamide] belongs ≤ 100 nM; to `CN([C@H]1CCC2=Cc3c(cnn3-c3ccc(F)cc3)C[C@]2(C(=O)c2cc(C(F)(F)F)ccn2)C1)S(=O)(=O)c1cnn(CC2CC2)c1` [Example 108, 1-(cyclopropylmethyl)-N-((4aS,6S)-1-(4-fluorophenyl)-4a-(4-(trifluoromethyl)picolinoyl)-4,4a,5,6,7,8-hexahydro-1H-benzo[f]indazol-6-yl)-N-methyl-1H-pyrazole-4-sulfonamide], ≤ 100 nM.
Under `CCN([C@H]1CCC2=Cc3c(cnn3-c3ccc(F)cc3)C[C@]2(C(=O)c2ccc(C3CC3)cn2)C1)S(=O)(=O)c1ccc(F)cc1` [Example 109, N-((4aS,6S)-4a-(5-cyclopropylpicolinoyl)-1-(4-fluorophenyl)-4,4a,5,6,7,8-hexahydro-1H-benzo[f]indazol-6-yl)-N-ethyl-4-fluorobenzenesulfonamide] stands ≤ 100 nM.

These data come from patent US20210122730A1, “GLUCOCORTICOID RECEPTOR MODULATORS” (ORIC Pharmaceuticals, Inc., priority 2017, published 2021).
